Results published in patent publication US5225607A, “Insecticidal ethers” (Imperial Chemical Industries PLC, priority 1985, dated 1993).

Assay: Insecticidal evaluation of fraction 1 and fraction 3 (resolved isomers)
Assay type: in vivo
Settings: fraction 1 (92.9% isomer A) against fraction 3
Description: (±)-1,1,1-trifluoro-2-(4-ethoxyphenyl)-3-(3-phenoxybenzyloxy)propane was resolved by high pressure liquid chromatography, using a Pirkle type 1A column (25 cm×4.9 mm) at -20° C., and n-hexane containing 1% by volume chloroform as eluent, at a flow rate of 0.7 cm^3 /minute. Elution was monitored using a UV detector at […]. Two isomers were detected:isomer A (retention time ca. 51 minutes) and isomer B (retention time ca. 54.6 minutes). A total of three fractions were collected.

CCOc1ccc(C(COCc2cccc(Oc3ccccc3)c2)C(F)(F)F)cc1 (single isomer, unassigned) [isomer A, (+)-1,1,1-trifluoro-2-(4-ethoxyphenyl)-3-(3-p-henoxybenzyloxy)-propane]
insecticidal activity of isomer A relative to isomer B: substantially more active than isomer B
